Data reported in PMC7802073, “Small Molecule Inhibitors of the Bacterioferritin (BfrB)–Ferredoxin (Bfd) Complex Kill Biofilm-Embedded Pseudomonas aeruginosa Cells” (ACS Infectious Diseases, 2020).
In brackets after ≈: the same amount, converted by molar mass.

Tests used:
[1] = test system: P. aeruginosa clinical isolate PA_1076058; assay: Viable cells (CFU/mL) dispersed from pellicle biofilms of a clinical isolate; format: cell-based, Pseudomonas aeruginosa; settings: PA_1076058 pellicles, 24 h, 1.2× IC50 (KM-5-25 80 μM, KM-5-66 50 μM)
Method: (§1) Pellicle biofilms were grown as described above.

[2] = test system: P. aeruginosa clinical isolate PA_1081725; assay: as above; format: cell-based, Pseudomonas aeruginosa; settings: PA_1081725 pellicles, 24 h, 1.2× IC50 (KM-5-25 80 μM, KM-5-66 50 μM)
Method: as §1

[3] = target: BfrB (Pseudomonas aeruginosa, UniProt Q9HY79); assay: Dissociation constant (Kd) for BfrB by fluorescence polarization; format: binding
Sequence of BfrB (Q9HY79 whole entry): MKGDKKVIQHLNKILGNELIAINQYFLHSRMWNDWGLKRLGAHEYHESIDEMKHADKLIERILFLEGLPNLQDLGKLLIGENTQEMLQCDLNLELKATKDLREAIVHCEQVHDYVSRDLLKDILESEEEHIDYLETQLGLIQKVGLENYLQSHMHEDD
Method: Dissociation constants for the interaction between BfrB and 3-aminoisoindoline-1,3-dione derivatives (Table 1, Figure S1) were measured in vitro with a fluorescence polarization method based on the intrinsic fluorescence of the isoindoline-1,3-dione moiety, as described previously.[25]
25 (A) and KM-5-66 (B) for BfrB, evaluated by fluorescence polarization, as described previously1.
Values were obtained in 100 mM potassium phosphate buffer (pH 7.6) containing 1 mM TCEP and
0.5% DMSO. The initial concentrations of KM-5-25 and KM-5-66 were 5 µM. The Kd values are the
average and standard deviation from three independent measurements. […]

[4] = test system: P. aeruginosa PAO1; assay: microbe, parasite or virus in culture; format: cell-based, Pseudomonas aeruginosa; settings: for secreted pyoverdine relative to untreated control, fluorescence at 460 nm normalized to CFU/mL: KM-5-25 70 μM or KM-5-66 50 μM, 27 h, M63 media; for viability at 50 µM: Pseudomonas aeruginosa, PAO1, 27 h, read-out: viable cells relative to the untreated control
Method: Cultures of P. aeruginosa PAO1 treated with KM-5-25 (70 μM) or KM-5-66 (50 μM) were grown for 27 h prior to diluting the contents of each well in PBS (pH 7.4) and plating the cells on PIA plates for enumeration of CFU/mL. The 500-fold diluted solution was clarified by centrifugation and the pyoverdine in the cell-free supernatant was analyzed by acquiring fluorescence emission spectra (430–550 nm) with excitation at 400 nm (10 nm slit width) and emission at λmax = 460 nm (10 nm slit width) using a PerkinElmer LS50B spectrophotometer.
Figure S5. P. aeruginosa cells treated with 4-aminoisoindoline-1,3-dione derivatives overproduce pyoverdine. (A) P. aeruginosa cultures treated with KM-5-25 (70 µM) or KM-5-66 (50 µM) for 27 h have ~35% of the viable cells in the untreated control. (B) Fluorescence spectra from cell -free supernatant corresponding to untreated cultures ( solid line), treated with KM-5-25 (dashed line), or treated with KM-5-66 (dotted line). (C) Fluorescence intensity normalized to the number of viable […]
pyoverdine than cells in the untreated control. Averages and standard deviations for 3 biological replicates are shown. p < 0.01 denoted by ** and p < 0.001 by *** relative to untreated.
(1 picture or pasted object on this page, not shown here)

[5] = Aqueous solubility; format: physicochemical; settings: aqueous media; read-out: soluble in aqueous media to
[6] = test system: P. aeruginosa PAO1; assay: Half maximal inhibitory concentration (IC50) on planktonic growth, CFU/mL enumeration; format: cell-based, Pseudomonas aeruginosa; settings: Pseudomonas aeruginosa, PAO1, defined media, 24 h, 35 °C, 2% DMSO, this work, read-out: IC50
Method: Chemicals were purchased from Fisher Scientific unless otherwise stated. P. aeruginosa PAO1 was obtained from the University of Washington Genome center.[81] The PAO1 strain expressing enhanced yellow fluorescent protein (EYFP) was prepared previously.[26] Clinical isolates of P. aeruginosa were purchased from JMI Laboratories (North Liberty, IA, USA). […] Starter cultures were grown from a single colony at 37 °C and shaking at 220 rpm for 14 h in 5 mL PI media supplemented with 10 μM Fe. Pellicle biofilms were cultured for 48 h at 30 °C in PI media supplemented with 20 μM Fe. Surface-attached biofilms were cultured in AB minimal media[82] supplemented with trace metals [0.15 μM (NH4)2MoO4, 3 μM CuSO4, 2 μM Co(NO3)2, 9.4 μM Na2B4O7, and 7.6 μM ZnSO4], 3 mM glucose and 15 μM Fe. Iron supplementation was carried out by addition of a small volume of filter-sterilized 10 mM (NH4)2Fe(SO4)2 (pH ∼ 2.0) solution. […]; IC50 values (Table 1, Figure S1) were determined as reported previously[25] with small modifications. In brief: precultures of P. aeruginosa PAO1 (5 mL) were grown in LB media for 13 h at 37 °C and 220 rpm in 50 mL conical tubes (VWR International, PA). The cells were centrifuged for 5 min at 4000 rpm and 4 °C, washed two times and then diluted in buffer (100 mM KH2PO4 and 15 mM (NH4)2SO4) to an optical density at 600 nm (OD600) of 0.1. A small volume of compound stock solution (10 mM) was transferred to a microcentrifuge tube, initially diluted with DMSO to 20 μL, and then diluted to 1 mL with preculture cell suspension in defined media with OD600 = 0.0001, so the final DMSO concentration is 2%. The resultant cell suspension (200 μL) was transferred to a clear-bottom polystyrene 96-well plate (VWR) covered with a lid and incubated at 35 °C and 205 cpm for 24 h in a Synergy H1 microplate reader (Biotek Instruments Inc., Vermont). The cell cultures were serially diluted and then plated on PI Agar (PIA; BD biosciences) plates for enumeration of viable cells (CFU/mL). The % growth was calculated from the ratio CFU/mL(treated)/CFU/mL(untreated control). To calculate the IC50 values, the % growth was plotted as a function of compound concentration, expressed as log[compound] (μM), and fitted to the 4-parameter logistic model describing the sigmoid-shaped response pattern (eq 1),[84] where b is the slope factor, max is the upper asymptote (plateau), and min is the lower asymptote. Values are the average and standard deviation from three independent experiments. [drawing 1] 1

| SMILES | reduction of viable cells [1] | reduction of viable cells [2] | Kd [3] [µM] | secreted pyoverdine relative to untreated control, fluorescence at 460 nm normalized to CFU/mL [4] [fold] | viability at 50 µM [4] [%] | solubility [5] [µM] | IC50 [6] [µM] |
| --- | --- | --- | --- | --- | --- | --- | --- |
| O=C1NC(=O)c2c(NCc3cc(Cl)ccc3O)cccc21 [KM-5-25, 4-((5-Chloro-2-hydroxybenzyl)amino)isoindoline-1,3-dione] | approximately 80% | approximately 80% | 4 ± 0.6 | ~5 | ~35 | ~110 (≈ 33.3 µg/mL) | 69 ± 7 |
| O=C1NC(=O)c2c(NCCCc3cc(O)cc(Cl)c3)cccc21 [KM-5-66, 4-((3-(3-Chloro-5-hydroxyphenyl)propyl)amino)isoindoline-1,3-dione] | approximately 80% | approximately 80% | 0.35 ± 0.05 | ~5 | ~35 | ~80 (≈ 26.5 µg/mL) | 42 ± 6 |
